# Key:
# [1] = system: IL-10; assay: Serum IL-10 by ELISA in GA-treated MS patients; type: in vivo, human
# Text: (§1) Approximately 60 cc of blood was obtained by venipuncture from each MS patient pre-treatment and at successive time points during treatment (3 months, 6 months, 9-12 months and 24 months). PBMC were purified using Ficoll-Hypaque gradients as described in the supplier's protocol (ICN Biomedicals Inc. Ohio, USA). Samples from collaborating centers were sent via overnight FedEx™ delivery at room temperature and processed immediately upon arrival.
# (§2) Interleukin-18 and caspase-1 levels were detected by human ELISA kits (Sandwich ELISA, Bender Nedaystems, USA). The sensitivity of the ELISA was 9.2 and 3.3 pg/ml for IL-18 and caspase-1 respectively. TGF-β, TNF-α, IL-4, IFN-γ, IL-17 and IL-10 levels were detected by human ELISA kits from ebioscience (San Diego Calif., 92121 USA). The sensitivity of the ebioscience kits were 60 pg/ml, 4 pg/ml, 2 pg/ml, 4 pg/ml, 4 pg/ml and 2 pg/ml respectively. BDNF was detected by the Human BDNF ELISA kit from Chemicon International (catalog #CYT306). The sensitivity of the BDNF ELISA was 7.8 pg/ml. […] Duplicates should be within 20% of the mean.
# [2] = system: IL-4; assay: Serum IL-4 by ELISA in GA-treated MS patients; type: in vivo, human
# Text: as §1, §2
# [3] = system: TGF-β; assay: Serum TGF-β by ELISA in GA-treated MS patients; type: in vivo, human
# Text: as §1, §2
# [4] = system: TNF-α; assay: Serum TNF-α by ELISA in GA-treated MS patients; type: in vivo, human
# Text: as §1, §2
# [5] = system: IL-10; assay: IL-10 by ELISA in ex-vivo PBMC supernatant of GA-treated MS patients; type: cell-based, human
# Description: as §1
# (§3) 2×10^5 PBMC/well were seeded in 96 well U-bottom micro titer plate in the absence of antigen (unstimulated condition) (US) or the presence of GA at 40 and 100 μg/ml (Teva Pharmaceutical Industries, Ltd., Israel), tetanus toxoid (TT 5 μg) obtained from UMASS (University of Mass, Worcester, Mass.). The latter was used as a control antigen. Supernatants were collected from cultured cells at days 1, 3 and 5 for various assays. After 5 days, 1 μCi ^3H-thymidine was added. Cells were harvested 18 hours later using TOMTEC cell harvester (TOMTEC, Hamden Conn.). Incorporated radioactivity was measured using a liquid Scintillation counter (Wallac MicroBeta Trilux, PerkinElmer, Boston, Mass.).
# as §2
# [6] = system: IFN-γ; assay: IFN-γ ELISPOT in ex-vivo PBMC of GA-treated MS patients; type: cell-based, human; settings: CD3/CD28 stimulated PBMC
# Text: as §1
# (§4) Human IFN-γ (Th1 indicator) and IL-4 (Th2 indicator) were measured by the ELISPOT assay according to the manufacturer's protocol (BD Biosciences, San Diego, Calif., USA). Briefly, ELISPOT plates (PVDF plate, Millipore Corporation, MA, USA) were coated with 100 μl/well of 5 μg/ml capture antibody at 4° C. over night. The plates were then washed with PBS, and incubated with 200 μl/well of blocking solution (culture medium) for 2 hours. PBMC (2×10^5 cells/well for IFN-γ and 4×10^5 cells/well for IL-4 detection) and antigen (GA 40 and 100 μg/ml, TT 5 μg/ml, CD3Ab (2.5 μg/ml)/CD28 Ab (1 μg/ml)) was added and cultured overnight at 37° C. in a 5% CO2 incubator. Samples were tested in triplicate wells in response to each antigen. After overnight culture, the plates were washed twice with deionized water and three times with PBS, then incubated with 100 μl of 2.0 μg/ml biotinylated antibody for 2 hours at room temperature. The plates were then washed three times with wash buffer (0.05% Tween-20 PBS), and incubated with 100 μl of 1:100 dilution of Avidin-HRP for 1 hour at room temperature and washed three times with wash buffer. Finally 100 μl of AEC (3-amino-9-ethyl-carbazole) substrate was added and the reaction was stopped by washing plates with distilled water. Spots were counted and analyzed by CTL Analyzers LLC ELISPOT Plate Reader (Cleveland, Ohio, USA).
# [7] = system: IL-4; assay: IL-4 ELISPOT in ex-vivo PBMC of GA-treated MS patients; type: cell-based, human; design: unit not given here; settings: CD3/CD28 stimulated PBMC
# Text: as §1, §4
# [8] = system: IL-18; assay: IL-18 by ELISA in ex-vivo PBMC supernatant of GA-treated MS patients; type: cell-based, human; settings: both groups
# Description: as §1
# as §3, with “Cells were harvested 18 hours later using TOMTEC cell harvester (TOMTEC, Hamden Conn.).” left out
# Interleukin-18 and caspase-1 levels were detected by human ELISA kits (Sandwich ELISA, Bender Nedaystems, USA). […] TGF-β, TNF-α, IL-4, IFN-γ, IL-17 and IL-10 levels were detected by human ELISA kits from ebioscience (San Diego Calif., 92121 USA). […] BDNF was detected by the Human BDNF ELISA kit from Chemicon International (catalog #CYT306). […]
substance,measurement,setting,value
Glatiramer acetate [GA],Serum IL-10 level,"[1]; HR/NR, 3 mo",40 ± 7.0 pg/mL
same,Serum IL-10 level,"[1]; HR/NR, 6 mo",37 ± 8.3 pg/mL
same,Serum IL-10 level,"[1]; HR/NR, 9-12 mo",40 ± 7.0 pg/mL
same,Serum IL-10 level,"[1]; HR/NR, 24 mo",37.6 ± 5 pg/mL
same,Serum IL-10 level,"[1]; HR/NR, Pre-Rx",38 ± 9 pg/mL
same,Serum IL-10 level,"[1]; R, 3 mo",47 ± 8.1 pg/mL
same,Serum IL-10 level,"[1]; R, 6 mo",67 ± 11 pg/mL
same,Serum IL-10 level,"[1]; R, 9-12 mo",69.8 pg/mL
same,Serum IL-10 level,"[1]; R, 24 mo",56 ± 18 pg/mL
same,Serum IL-10 level,"[1]; R, Pre-Rx",32 ± 4.5 pg/mL
same,"Δ IL-10 6 months, Median (Non-Responders)","[1]; serum, change from baseline",−1.5
same,"Δ IL-10 6 months, Median (Responders)","[1]; serum, change from baseline",15
same,"Δ IL-10 9 months, Median (Non-Responders)","[1]; serum, change from baseline",−2
same,"Δ IL-10 9 months, Median (Responders)","[1]; serum, change from baseline",42
same,"Δ IL-10 24 months, Median (Non-Responders)","[1]; serum, change from baseline",1
same,"Δ IL-10 24 months, Median (Responders)","[1]; serum, change from baseline",29
same,Serum IL-4 level,"[2]; HR/NR, 3 mo",13 ± 0.92 pg/mL
same,Serum IL-4 level,"[2]; HR/NR, 6 mo",13 ± 1.4 pg/mL
same,Serum IL-4 level,"[2]; HR/NR, 9-12 mo",18 ± 1.4 pg/mL
same,Serum IL-4 level,"[2]; HR/NR, 24 mo",16 ± 1 pg/mL
same,Serum IL-4 level,"[2]; HR/NR, Pre-Rx",14 ± 0.70 pg/mL
same,Serum IL-4 level,"[2]; R, 3 mo",16 ± 0.70 pg/mL
same,Serum IL-4 level,"[2]; R, 6 mo",17 ± 0.81 pg/mL
same,Serum IL-4 level,"[2]; R, 9-12 mo",17 ± 1.8 pg/mL
same,Serum IL-4 level,"[2]; R, 24 mo",16 ± 1.0 pg/mL
same,Serum IL-4 level,"[2]; R, Pre-Rx",16 ± 0.60 pg/mL
same,"Δ IL-4 6 months, Median (Non-Responders)","[2]; serum, change from baseline",−1.5
same,"Δ IL-4 6 months, Median (Responders)","[2]; serum, change from baseline",1
same,Serum TGF-β level,"[3]; HR/NR, 3 mo",1921 ± 150 pg/mL
same,Serum TGF-β level,"[3]; HR/NR, 6 mo",1723 ± 147 pg/mL
same,Serum TGF-β level,"[3]; HR/NR, 9-12 mo",1727 ± 97 pg/mL
same,Serum TGF-β level,"[3]; HR/NR, 24 mo",1844 ± 53 pg/mL
same,Serum TGF-β level,"[3]; HR/NR, Pre-Rx",1796 ± 95 pg/mL
same,Serum TGF-β level,"[3]; R, 3 mo",1908 ± 70 pg/mL
same,Serum TGF-β level,"[3]; R, 6 mo",1968 ± 75 pg/mL
same,Serum TGF-β level,"[3]; R, 9-12 mo",1901 ± 64 pg/mL
same,Serum TGF-β level,"[3]; R, 24 mo",1983 ± 93 pg/mL
same,Serum TGF-β level,"[3]; R, Pre-Rx",1774 ± 48 pg/mL
same,Serum TNF-α level,"[4]; HR, 3 mo",56 ± 5.0 pg/mL
same,Serum TNF-α level,"[4]; HR, 6 mo",55 ± 7.0 pg/mL
same,Serum TNF-α level,"[4]; HR, 9-12 mo",59 ± 5.18 pg/mL
same,Serum TNF-α level,"[4]; HR, 24 mo",52.4 ± 9.64 pg/mL
same,Serum TNF-α level,"[4]; HR, Pre-Rx",51 ± 3.0 pg/mL
same,Serum TNF-α level,"[4]; R, 3 mo",47 ± 3.3 pg/mL
same,Serum TNF-α level,"[4]; R, 6 mo",44 ± 4.6 pg/mL
same,Serum TNF-α level,"[4]; R, 9-12 mo",54 ± 4.24 pg/mL
same,Serum TNF-α level,"[4]; R, 24 mo",50.13 ± 1.5 pg/mL
same,Serum TNF-α level,"[4]; R, Pre-Rx",57 ± 3.6 pg/mL
same,"Δ TNF-alpha 6 months, Median (Non-Responders)","[4]; serum, change from baseline",1
same,"Δ TNF-alpha 6 months, Median (Responders)","[4]; serum, change from baseline",−14
same,Supernatant IL-10 level,"[5]; HR/NR, 3 mo",160 ± 65 pg/mL
same,Supernatant IL-10 level,"[5]; HR/NR, 6 mo",153 ± 69 pg/mL
same,Supernatant IL-10 level,"[5]; HR/NR, 9-12 mo",181 ± 22 pg/mL
same,Supernatant IL-10 level,"[5]; HR/NR, 24 mo",200 ± 59 pg/mL
same,Supernatant IL-10 level,"[5]; HR/NR, Pre-Rx",143 ± 61 pg/mL
same,Supernatant IL-10 level,"[5]; R, 3 mo",200 ± 65 pg/mL
same,Supernatant IL-10 level,"[5]; R, 6 mo",310 ± 64 pg/mL
same,Supernatant IL-10 level,"[5]; R, 9-12 mo",249 ± 70 pg/mL
same,Supernatant IL-10 level,"[5]; R, 24 mo",255 ± 45 pg/mL
same,Supernatant IL-10 level,"[5]; R, Pre-Rx",170 ± 60 pg/mL
same,"IFN-γ expression (ELISPOT, mean number of spots)","[6]; HR/NR, 3 mo",206 ± 24
same,"IFN-γ expression (ELISPOT, mean number of spots)","[6]; HR/NR, 6 mo",233 ± 26
same,"IFN-γ expression (ELISPOT, mean number of spots)","[6]; HR/NR, 9-12 mo",218 ± 34
same,"IFN-γ expression (ELISPOT, mean number of spots)","[6]; HR/NR, 24 mo",186 ± 35
same,"IFN-γ expression (ELISPOT, mean number of spots)","[6]; HR/NR, Baseline",192 ± 26
same,"IFN-γ expression (ELISPOT, mean number of spots)","[6]; R, 3 mo",182 ± 18
same,"IFN-γ expression (ELISPOT, mean number of spots)","[6]; R, 6 mo",150 ± 15
same,"IFN-γ expression (ELISPOT, mean number of spots)","[6]; R, 9-12 mo",110 ± 19
same,"IFN-γ expression (ELISPOT, mean number of spots)","[6]; R, 24 mo",86 ± 14
same,"IFN-γ expression (ELISPOT, mean number of spots)","[6]; R, Baseline",197 ± 28
same,IL-4 expression (ELISPOT),"[7]; HR/NR, 3 mo",14 ± 4
same,IL-4 expression (ELISPOT),"[7]; HR/NR, 6 mo",20 ± 6
same,IL-4 expression (ELISPOT),"[7]; HR/NR, 9-12 mo",23 ± 5
same,IL-4 expression (ELISPOT),"[7]; HR/NR, 24 mo",21 ± 3.5
same,IL-4 expression (ELISPOT),"[7]; HR/NR, Baseline",39 ± 9
same,IL-4 expression (ELISPOT),"[7]; R, 3 mo",44 ± 7.4
same,IL-4 expression (ELISPOT),"[7]; R, 6 mo",45 ± 7.3
same,IL-4 expression (ELISPOT),"[7]; R, 9-12 mo",39 ± 5.8
same,IL-4 expression (ELISPOT),"[7]; R, 24 mo",36 ± 7.2
same,IL-4 expression (ELISPOT),"[7]; R, Baseline",35 ± 5.9
same,"Supernatant IL-18 levels, change during GA treatment",[8],did not show any significant changes from baseline

# — US9687522B2, “Methods of treating a subject afflicted with an autoimmune disease using predictive biomarkers of clinical response to glatiramer acetate therapy in multiple sclerosis” (TEVA PHARMACEUTICAL INDUSTRIES, LTD., priority 2010, dated 2017)
